{
  "source": "paper PMC10167348",
  "about": "“Structural mechanisms of TRPM7 activation and inhibition” (Nature Communications, 2023)",
  "key": {"[1]": {"molecular_target": "T1, purified TRPM7 reconstituted in lipid bilayers (Mus musculus, UniProt Q923J1)", "T1 construct": "truncated C-terminally (the corresponding protein residues 1–1280); GFP (N); thrombin cleavage site (LVPRG) (N); made in house; host or cells: HEK 293S GnTI- cells (BacMam baculovirus made in Sf9)", "T1 sequence (Q923J1 1-1280)": "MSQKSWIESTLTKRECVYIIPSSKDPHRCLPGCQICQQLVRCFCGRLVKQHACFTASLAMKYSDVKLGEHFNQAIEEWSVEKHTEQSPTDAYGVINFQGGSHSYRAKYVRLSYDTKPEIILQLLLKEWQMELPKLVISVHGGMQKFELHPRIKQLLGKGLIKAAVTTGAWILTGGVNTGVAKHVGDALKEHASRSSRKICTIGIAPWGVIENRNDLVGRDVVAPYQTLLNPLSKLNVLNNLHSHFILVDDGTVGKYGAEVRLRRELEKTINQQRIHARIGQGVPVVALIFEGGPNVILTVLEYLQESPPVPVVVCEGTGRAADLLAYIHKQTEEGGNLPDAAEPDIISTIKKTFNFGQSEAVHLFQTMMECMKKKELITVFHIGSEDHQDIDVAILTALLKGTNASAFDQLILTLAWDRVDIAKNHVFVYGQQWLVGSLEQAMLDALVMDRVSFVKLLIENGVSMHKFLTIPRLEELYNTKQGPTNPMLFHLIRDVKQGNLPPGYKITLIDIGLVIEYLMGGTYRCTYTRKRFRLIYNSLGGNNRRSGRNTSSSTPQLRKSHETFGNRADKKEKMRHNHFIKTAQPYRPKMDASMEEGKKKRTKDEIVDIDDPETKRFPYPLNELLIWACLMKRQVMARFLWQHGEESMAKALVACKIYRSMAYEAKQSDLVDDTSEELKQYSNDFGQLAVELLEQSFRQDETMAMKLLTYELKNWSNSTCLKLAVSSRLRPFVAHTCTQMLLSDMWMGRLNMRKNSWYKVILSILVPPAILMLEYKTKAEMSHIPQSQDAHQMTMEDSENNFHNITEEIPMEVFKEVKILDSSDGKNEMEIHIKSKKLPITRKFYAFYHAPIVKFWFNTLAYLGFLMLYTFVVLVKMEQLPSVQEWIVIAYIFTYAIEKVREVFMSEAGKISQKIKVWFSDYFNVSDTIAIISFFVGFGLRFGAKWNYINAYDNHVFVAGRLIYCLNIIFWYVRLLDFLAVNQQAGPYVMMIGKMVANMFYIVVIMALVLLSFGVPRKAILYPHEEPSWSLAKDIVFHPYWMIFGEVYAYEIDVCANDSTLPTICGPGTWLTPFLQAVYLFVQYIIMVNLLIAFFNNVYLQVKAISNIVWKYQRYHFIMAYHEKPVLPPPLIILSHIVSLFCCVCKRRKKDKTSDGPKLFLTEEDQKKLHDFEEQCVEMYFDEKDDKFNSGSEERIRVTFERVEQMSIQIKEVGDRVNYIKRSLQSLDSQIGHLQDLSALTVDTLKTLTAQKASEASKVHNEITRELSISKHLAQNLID", "experiment": "Planar lipid bilayer single-channel recordings", "assay_type": "biochemical", "settings": "2.5 μM NTB, membrane potential –100 mV, n = 3; Po without agonist 0.02 ± 0.01", "method": "Planar lipid bilayers measurements were performed as described previously. Briefly, planar lipid bilayers were formed from a 30 mM solution of synthetic lipid mix POPC:POPE:POPG at a 3:1:1 ratio (Anatrace, P516:P416:P616) in n-decane (Sigma-Aldrich). The solution was used to paint a bilayer in an aperture of ∼150 µm diameter in a Meca chip (Nanion). Each cavity in the chip contained an individual integrated Ag/AgCl-microelectrode. The bathing solution contained 150 mM KCl, 0.02 mM MgCl2, 1 µM CaCl2 and 20 mM HEPES (pH 7.2). All the reagents (Sigma-Aldrich) were ultrapure (>99%). The bilayer capacitance was in the range of 5–10 pF.\nThe purified protein (10 ng/ml) was added to the bilayer-forming lipid mix (1 volume of protein to 1 volume of the lipid mix) and incubated for 30 min at 30 °C. […] Only after the incubated protein-lipid mix was added by painting, the unitary currents were recorded using an Orbit mini device (Nanion) controlled by the pCLAMP 10.2 software (Molecular Devices). Data were low-pass filtered at […] and digitized at 1.22 kHz. Single-channel conductance events, all-points histograms, and other parameters were identified and analyzed using the Clampfit 10.3 software (Molecular Devices). Only recordings with one channel incorporated into the lipid bilayer were subjected to single-channel analysis. […]"}, "TRPM7-N1098Q": {"system": "TRPM7-N1098Q", "design": "method as in Schmidt et al., 2022, PMID: 35389104", "settings": "ref Schmidt et al., 2022, PMID: 35389104; cited from earlier work"}},
  "data": [
    {"smiles": "Oc1ccc2c3c1O[C@H]1c4oc5ccccc5c4C[C@@]4(O)[C@@H](C2)N(CC2CC2)CC[C@]314", "note": "[Naltriben, naltriben]", "values": [
      {"measurement": "open probability, Po", "setting": "[1]", "result": "0.44 ± 0.25"},
      {"measurement": "response of the N1098Q variant to the agonist", "setting": "TRPM7-N1098Q", "result": "did not respond"}
    ]}
  ]
}
